≈ marks a conversion by molar mass, not a printed value.

The test system of data set [1] is Human immunodeficiency virus 1. The experiment in a line: Inhibition of HIV-1 replication in H9 (human lymphoma) cells. In kind it is functional, organism-based. The conditions noted are these: Human immunodeficiency virus 1, H9.
The test system of another data set is H9. The experiment in a line: Inhibition of uninfected H9 lymphocytic cell growth. In kind it is functional, cell-based. The conditions noted are these: Homo sapiens.
Data set [2] can be described thus: Therapeutic index - IC50/EC50. The following applies: read-out: Therapeutic index.
Data set [3] deals with Human immunodeficiency virus 1. The experiment in a line: Inhibition of HIV-1 replication in H9 (human lymphoma) cells; No suppression. In kind it is functional, organism-based.

In data set [1], `O=C(O[C@@H]1Cc2c(O)cc(O)c([C@H]3c4c(O)cc(O)cc4O[C@H](c4cc(O)c(O)c(O)c4)[C@@H]3O)c2O[C@@H]1c1cc(O)c(O)c(O)c1)c1cc(O)c(O)c(O)c1` yielded a concentration for a half-maximal effect (EC50) of 15 µg/mL (≈ 19.7 µM). Besides, half-maximal inhibition in the data set on H9 (IC50) was put at 28 µg/mL (≈ 36.7 µM). Further, the selectivity ratio in data set [2] amounted to 1.9.

With `O=C(O[C@@H]1Cc2c(O)cc(O)c(Cc3c(O)cc(O)c4c3O[C@H](c3cc(O)c(O)c(O)c3)[C@H](OC(=O)c3cc(O)c(O)c(O)c3)C4)c2O[C@@H]1c1cc(O)c(O)c(O)c1)c1cc(O)c(O)c(O)c1`, in the data set on H9, half-maximal inhibition (IC50) was put at 45 µg/mL (≈ 48.5 µM). For the same molecule, in data set [3], the concentration for a half-maximal effect (EC50) entry is “No effect”.

In the case of `O=C(O[C@@H]1Cc2c(O)cc(O)cc2O[C@@H]1c1cc(O)c(O)cc1-c1c([C@H]2Oc3cc(O)cc(O)c3C[C@H]2OC(=O)c2cc(O)c(O)c(O)c2)cc(O)c(O)c1O)c1cc(O)c(O)c(O)c1`, in the data set with H9, the midpoint of inhibition, the IC50, lay at 50 µg/mL (≈ 55.6 µM). In data set [3], the concentration giving a half-maximal response (EC50) result is listed as “No effect”.

As for `O=C1c2c(O)cc(O)cc2O[C@H](c2ccc(O)c(O)c2)[C@H]1O` [(+)-TAXIFOLIN], the midpoint of the response in data set [1], the EC50, lay at 9.8 µg/mL (≈ 32.2 µM). Besides, the IC50 with H9 was 9.8 µg/mL (≈ 32.2 µM). Besides, the selectivity ratio in data set [2] stood at 1.

With `O=C(O[C@H](Cc1c(O)cc(O)cc1O)[C@H](c1cc(O)c(O)c(O)c1)c1c(O)cc(O)c2c1O[C@H](c1cc(O)c(O)c(O)c1)[C@H](OC(=O)c1cc(O)c(O)c(O)c1)C2)c1cc(O)c(O)c(O)c1`, the IC50 with H9 came out at 9 µg/mL (≈ 9.82 µM). Further, in data set [3], the EC50 result is given as “No effect”.

`O=C(O[C@@H]1Cc2c(O)cc(O)cc2O[C@@H]1c1cc(O)c(=O)c2c(O)c(O)c(O)cc2c1)c1cc(O)c(O)c(O)c1` registered an EC50 in data set [1] of 5.5 µg/mL (≈ 9.96 µM). The 50% inhibitory concentration (IC50) in the data set with H9 was found to be 25 µg/mL (≈ 45.3 µM). Moreover, in data set [2], the selectivity ratio was determined as 4.5.

`O=C(Oc1cc([C@H]2Oc3cc(O)cc(O)c3C[C@H]2OC(=O)c2cc(O)c(O)c(O)c2)cc(O)c1O)c1cc(O)c(O)c(O)c1`: the EC50 in data set [1] was 6.5 µg/mL (≈ 10.6 µM). In the data set with H9, the concentration for half-maximal inhibition (IC50) is 40 µg/mL (≈ 65.5 µM). In addition, in data set [2], the selectivity ratio was 6.2.

`O=C(O[C@@H]1Cc2c(O)cc(O)cc2O[C@@H]1c1cc(O)c(O)c(O)c1-c1c([C@H]2Oc3cc(O)cc(O)c3C[C@H]2OC(=O)c2cc(O)c(O)c(O)c2)cc(O)c(O)c1O)c1cc(O)c(O)c(O)c1` [THEASINENSIN A] had a concentration giving a half-maximal response (EC50) in data set [1] of 19 µg/mL (≈ 20.8 µM). This molecule also came in with an IC50 with H9 of 18 µg/mL (≈ 19.7 µM). In addition, the selectivity ratio in data set [2] came to 0.95.

In data set [1], `O=C(O[C@@H]1[C@@H](c2c(O)cc3c(c2O)C[C@@H](OC(=O)c2cc(O)c(O)c(O)c2)[C@@H](c2cc(O)c(O)c(O)c2)O3)c2c(O)cc(O)cc2O[C@@H]1c1cc(O)c(O)c(O)c1)c1cc(O)c(O)c(O)c1` gave an EC50 of 15 µg/mL (≈ 16.4 µM). The molecule further had an IC50 in the data set with H9 of 30 µg/mL (≈ 32.8 µM). Further, the selectivity ratio in data set [2] was 2.

Molecule `O=C(O[C@@H]1Cc2c(cc(O)c(Cc3c(O)cc4c(c3O)C[C@@H](OC(=O)c3cc(O)c(O)c(O)c3)[C@@H](c3cc(O)c(O)c(O)c3)O4)c2O)O[C@@H]1c1cc(O)c(O)c(O)c1)c1cc(O)c(O)c(O)c1` gave an EC50 in data set [1] of 9 µg/mL (≈ 9.69 µM). Further, the IC50 in the data set on H9 is 35 µg/mL (≈ 37.7 µM). Further, in data set [2], the selectivity ratio came out at 3.9.

Turning to `O=C(O[C@@H]1Cc2c(O)cc(O)cc2O[C@@H]1c1cc(O)c(O)c(O)c1)c1cc(O)c(O)c(O)c1` [EPIGALOCATECHIN GALLATE], in data set [1], the midpoint of the response, the EC50, lay at 7 µg/mL (≈ 15.3 µM). Moreover, in the data set on H9, it took 8 µg/mL (≈ 17.5 µM) to reach half-maximal inhibition (IC50). Besides, in data set [2], the selectivity ratio turned out to be 1.1.

For the molecule `O=C(O[C@@H]1Cc2c(O)cc(O)cc2O[C@@H]1c1cc(O)c(O)c2c1C1C([C@H]3Oc4cc(O)cc(O)c4C[C@H]3O)=CC(=O)C1(O)O2)c1cc(O)c(O)c(O)c1` (some centres not stated), the 50% effective concentration (EC50) in data set [1] was 25 µg/mL (≈ 34.1 µM). In the data set on H9, this molecule registered an IC50 of 48 µg/mL (≈ 65.5 µM). In data set [2], the selectivity ratio came out at 1.9.

Molecule `O=C(O[C@@H]1Cc2c(O)cc3c(c2O[C@@H]1c1cc(O)c(O)c(O)c1)C1(O)C(=O)O[C@H]([C@@H](O)CO)C1(O)O3)c1cc(O)c(O)c(O)c1` (some centres not stated) displayed an EC50 in data set [1] of 10 µg/mL (≈ 15.8 µM). The IC50 with H9 was found to be 40 µg/mL (≈ 63.2 µM). Moreover, the selectivity ratio in data set [2] amounted to 4.

In the case of `Oc1cc(O)c2c(c1)O[C@H](c1cc(O)c(O)c(O)c1-c1c([C@H]3Oc4cc(O)cc(O)c4C[C@H]3O)cc(O)c(O)c1O)[C@H](O)C2`, the EC50 in data set [1] amounted to 6 µg/mL (≈ 9.83 µM). In addition, the IC50 with H9 was determined as 9.5 µg/mL (≈ 15.6 µM). The selectivity ratio in data set [2] amounted to 1.6.

The molecule `O=C(O[C@@H]1Cc2c(O)cc(O)cc2OC1c1cc(O)c(O)c(O)c1-c1c(C2Oc3cc(O)cc(O)c3C[C@H]2OC(=O)c2cc(O)c(O)c(O)c2)cc(O)c(O)c1O)c1cc(O)c(O)c(O)c1` (single isomer, unassigned) registered an EC50 in data set [1] of 8 µg/mL (≈ 8.75 µM). The molecule further had a concentration for half-maximal inhibition (IC50) with H9 of 40 µg/mL (≈ 43.7 µM). Further, in data set [2], the selectivity ratio stood at 5.

On to `O=C(/C=C/c1ccc(O)cc1)O[C@@H]1Cc2c(O)cc(O)cc2O[C@@H]1c1cc(O)c(O)c(O)c1`, for which the EC50 in data set [1] came to 8 µg/mL (≈ 17.7 µM). In the data set on H9, this molecule registered an IC50 of 35 µg/mL (≈ 77.4 µM). For the same molecule, the selectivity ratio in data set [2] turned out to be 4.4.

As for `Oc1cc(O)c2c(c1)OC(c1cc(O)c(O)c(O)c1-c1c(C3Oc4cc(O)cc(O)c4C[C@H]3O)cc(O)c(O)c1O)[C@H](O)C2` (single isomer, unassigned), in data set [1], the half-maximal effective concentration (EC50) is 10 µg/mL (≈ 16.4 µM). Also, half-maximal inhibition in the data set on H9 (IC50) required 20 µg/mL (≈ 32.8 µM). Also, the selectivity ratio in data set [2] is 2.

The molecule `O=C(Oc1c(O)cc([C@H]2Oc3cc(O)cc(O)c3C[C@H]2OC(=O)c2cc(O)c(O)c(O)c2)cc1O)c1cc(O)c(O)c(O)c1` displayed an EC50 in data set [1] of 6.5 µg/mL (≈ 10.6 µM). This molecule also registered an IC50 with H9 of 40 µg/mL (≈ 65.5 µM). Further, the selectivity ratio in data set [2] turned out to be 6.2.

In data set [1], `O=C(O[C@@H]1Cc2c(cc(O)c(Cc3c(O)cc(O)c4c3O[C@H](c3cc(O)c(O)c(O)c3)[C@H](OC(=O)c3cc(O)c(O)c(O)c3)C4)c2O)O[C@@H]1c1cc(O)c(O)c(O)c1)c1cc(O)c(O)c(O)c1` had a concentration giving a half-maximal response (EC50) of 25 µg/mL (≈ 26.9 µM). The molecule also yielded a half-maximal inhibitory concentration (IC50) in the data set on H9 of 40 µg/mL (≈ 43.1 µM). The selectivity ratio in data set [2] was 1.6.

In data set [1], `O=C1O[C@H]([C@@H](O)CO)C2(O)Oc3cc(O)c4c(c3C12O)O[C@H](c1cc(O)c(O)c(O)c1)[C@H](O)C4` (some centres not stated) registered a concentration for a half-maximal effect (EC50) of 4 µg/mL (≈ 8.33 µM). This molecule also returned a 50% inhibitory concentration (IC50) in the data set on H9 of 38 µg/mL (≈ 79.1 µM). Also, the selectivity ratio in data set [2] is 9.5.

For `O=C(O[C@H](Cc1c(O)cc(O)cc1O)[C@@H](c1cc(O)c(O)c(O)c1)c1c(O)cc2c(c1O)C[C@@H](OC(=O)c1cc(O)c(O)c(O)c1)[C@@H](c1cc(O)c(O)c(O)c1)O2)c1cc(O)c(O)c(O)c1`, in data set [1], a half-maximal response (EC50) required 14 µg/mL (≈ 15.3 µM). Moreover, in the data set with H9, the IC50 came to 35 µg/mL (≈ 38.2 µM). In addition, the selectivity ratio in data set [2] came to 2.5.

For the molecule `Oc1cc(O)c2c(c1)O[C@H](c1cc(O)c(O)c(O)c1)[C@H](O)[C@H]2c1c(O)cc(O)c2c1O[C@H](c1cc(O)c(O)c(O)c1)[C@H](O)C2`, a half-maximal effect in data set [1] (EC50) was put at 15 µg/mL (≈ 24.6 µM). Also, the IC50 in the data set with H9 stood at 18 µg/mL (≈ 29.5 µM). Also, the selectivity ratio in data set [2] amounted to 1.2.

Take `O=C(Oc1cc(O)cc2c1C[C@@H](OC(=O)c1cc(O)c(O)c(O)c1)[C@@H](c1cc(O)c(O)c(O)c1)O2)c1cc(O)c(O)c(O)c1` [EPIGALLOCATECHIN 3,5-DIGALLATE]: the EC50 in data set [1] turned out to be 5.5 µg/mL (≈ 9.01 µM). Besides, the concentration for half-maximal inhibition (IC50) in the data set with H9 is 20 µg/mL (≈ 32.8 µM). Besides, the selectivity ratio in data set [2] amounted to 3.6.

In data set [1], `Oc1cc(O)c2c(c1)O[C@H](c1cc(O)c(O)c(O)c1)[C@@H](O)[C@@H]2c1c(O)cc(O)c2c1O[C@H](c1cc(O)c(O)c(O)c1)[C@H](O)C2` showed an EC50 of 12 µg/mL (≈ 19.7 µM). Further, the half-maximal inhibitory concentration (IC50) with H9 came out at 18 µg/mL (≈ 29.5 µM). Also, in data set [2], the selectivity ratio worked out at 1.5.

Regarding `Oc1ccc([C@H]2Oc3cc(O)cc(O)c3C[C@H]2O)cc1` [EPIAFZELECHIN (2R,3R)(-)], the midpoint of the response in data set [1], the EC50, lay at 70 µg/mL (≈ 255 µM). Besides, the half-maximal inhibitory concentration (IC50) in the data set on H9 was determined as 100 µg/mL (≈ 365 µM). Moreover, the selectivity ratio in data set [2] is 1.4.

A word on the EC50: it is the concentration giving half of the maximal effect. A higher EC50 goes with weaker potency. Usually IC50 stands for the point on the concentration scale where inhibition reaches its midpoint. Lower therefore signals greater potency in that assay.
